The subject of one data set is CLL cells. As to the kind of experiment: cells. The settings on record: Homo sapiens, CLL cell; for cytotoxicity at 5 µM: 72 h, CCcompound3 5 μM, alone or combined. The method, then:
Heparinized peripheral-blood samples were obtained from chronic lymphocytic leukemia patients with more than 70% malignant cells after informed consent, in accordance with the Declaration of Helsinki. The blood samples (10-ml) were diluted 1:1 with cold phosphate buffered saline (PBS; 0.135 M NaCl, 2.7 mM KCl, 1.5 mM KH2PO4, 8 mM Na2HPO4 [pH 7.4]) and layered onto Ficoll-Hypaque (8-ml, specific gravity, 1.086; Life Technologies, Grand Island, N.Y.). Then, the blood was centrifuged at 433 g for 20 min, and mononuclear cells were removed from the interphase. Cells were washed twice with cold PBS and after each centrifugation step the pelleted cells were resuspended in 10-ml RPMI 1640 supplemented with 10% fetal bovine serum (inactivated for 30 min at 56° C.). A Coulter channelyzer (Coulter Electronics, Hialeah, Fla.) was used to determine the cell number. Then the number of cells was adjusted to 1×10^7 cells per 1 ml before using them for the experiments.
(§1) For the determination of relative number of viable cells before and after treatments, in most cases the MTT assay was used. This calorimetric assay is based on the ability of living cells, but not dead cells, to reduce 3-(4, 5-dimethyl thiazol-2-yl)-2, 5-diphenyltetrazolium bromide [Carmichael, J, De Graff, W. G., Gazdar, A. F., Minna, J. D. and Mitchell, J. B. (1987), “Evaluation oftetrazolium-based semiautomated calorimetric assay: Assessment of chemosensitivity testing,” Cancer Res., 47, 936-942]. For this assay, cells were plated in 96-well plates (10,000-30,000 cells in case of cultured cells, 100,000 cells in case of healthy lymphocytes, and 200,000 cells in case of chronic lymphocytic leukemia or non-Hodgkin lymphocytes) in the respective incubation media. After a 24-h resting period, the cells were treated with the test agents and then incubated (in CO2 incubator under humidified atmosphere) for 72 hours (final incubation volume, 150 μl). The MTT assay was performed both with the untreated and treated cell cultures at the conclusion of the incubation. Often, the MTT assay also was performed at the start of treatments to allow assessment of proliferation rates in the control and treated cell cultures. All data presented are the average of 4 incubations (in 4 separate wells) with the same cell population.

A further data set deals with MCF-7/ADR cells. As to the kind of experiment: MTT cell viability, MCF-7/ADR cells. It is filed as cell-based, human. Particulars: 72 h, CCcompound104 5 μg/ml, EA 60 μM, CCcompound26/CCcompound3/CCcompound19 50 μM, alone or combined. The procedure:
MCF/ADR cells were selected by incubating the parent MCF-7 with toxic concentrations (up to 10 μM) of adriamycin (doxorubicin). The selected drug resistant cells express both MDR1 and MRP1 among other molecular alterations as reviewed earlier [Kiss, Z., Tomono, M. and Anderson, W. B. (1994), “Phorbol ester selectively stimulates the phospholipase D-mediated hydrolysis of phosphatidylethanolamine in multidrug-resistant MCF-7 human breast carcinoma cells,” Biochem. J., 302, 649-654]. […] Ethacrynic acid (EA) alone, used at 60 μM concentration, decreased cell viability by about 24%, while CCcompound104 and EA in combination had 70% inhibitory effects (Table 7). In this cell line CCcompound104 and EA decreased cell viability synergistically.

In another data set the test system is MCF-7 cells. As to the kind of experiment: Cell viability, MCF-7 cells. In kind it is cell-based. Particulars: Homo sapiens, MCF7, 72 h, read-out: decrease of cell viability. The method, then:
The MCF-7 cells were isolated from a human mammary tumor. After combined treatments with 5 μg/ml of CCcompound104 and 1 μM of CCcompound26 for 72 hours, the viability of these cells was decreased by 42%. EA (30 μM) alone decreased cell viability by 32%, while the 3 agents together decreased cell viability about 100% (i.e. practically no viable cells remained after the treatments).

For data set [1], the system named is lymphoma cells derived from non-Hodgkin patients. As to the kind of experiment: MTT cell viability, lymphoma cells from non-Hodgkin patients. It is filed as cell-based. Particulars: Homo sapiens, 72 h, CCcompound104 5 μg/ml, CCcompound26 1 μM, read-out: Inhibition (%) of viability. The method, then: Lymphoma cells derived from two non-Hodgkin lymphoma patients were treated with EA (15 μM) in the absence or presence of CCcompound104 (5 μg/ml)+CCcompound26 (1 μM) for 72 hours. […] However, the 3 agents together decreased the number of viable cells by 91 and 97%, respectively (Table 13).

The test system of a further data set is parent L5178 cells. As to the kind of experiment: Rhodamine 123 cellular content in parent L5178 cells (flow cytometry). It is filed as cell-based, mouse. The settings on record: data not shown. The method, then: The L5178 mouse T cell lymphoma parent cell line and its MDR1 expressing subline (L5178/MDR1) were used. […] The cells were adjusted to a concentration of 2×10^6 cells per ml, then resuspended in serum-free McCoy's 5A medium and 0.5-ml portions distributed into small (1.2-ml) Eppendorf centrifuge tubes. After adding various concentrations of test compounds as listed below in Table 2, the samples were incubated for 10 min at room temperature (22° C.). […] After centrifugation (450 g, 10 min) the pelleted cells were washed twice with PBS and resuspended in 0.5-ml of PBS for cytometry. The fluorescence intensity of the cell population was measured by flow cytometry using Beckton Dickinson's FACScan instrument.
The percentage mean fluorescence intensity (FL-1) was calculated for the treated parental and MDR1 cell lines as compared with that of untreated cells. […] Other values measured are Forward scattered count (FSC) and site scattered count (SSC).

Another data set is described as follows: Solubility in water. It is filed as physicochemical. From the text: In one embodiment, CCcompound104, CCcompound26 and EA may be administered orally. The two CC compounds are water-soluble, while EA is first dissolved in absolute ethanol and diluted in water or a suitable physiologically compatible liquid solvent. In one embodiment of the invention, the CC compounds and EA are in the form of a tablet, gel capsule, a liquid, or the like. In each case, the compounds are mixed with one or more carriers chosen by one having ordinary skill in the art to best suit the goal of treatment. In addition to the active compounds, the tablet or gel may contain any component that is presently used in the pharmaceutical field to ensure firmness, stability, solubility and appropriate taste. Any additional component of the tablet or gel will be chemically inert; i.e., it will not participate in a chemical reaction with the active compounds or the other additives. Each compound may be prepared for oral consumption separately, or the tablet, gel capsule or liquid may contain any of the two components or all three components. Tablets containing 25 mg or 50 mg of EA can be purchased from Merck.

The next data set can be described thus: in vitro. Particulars: human.
From the text: as §1
Peripheral lymphocytes are known to be very sensitive to chemotherapy and this sensitivity often limits the dose of chemotherapy that can be employed. In this series of experiments, the combined effects of CCcompound104 alone or in combination with CCcompound26 or CCcompound3 were determined on the viability of peripheral lymphocytes to establish doses that reduce cell viability less than 50%. As in previous experiments, the treatments were performed for 72 hours.

Where two headings read alike, the source gives them in different places.

For the compound `C=C(CC)C(=O)c1ccc(OCC(=O)O)c(Cl)c1Cl` [EA, ethacrynic acid], the cytotoxicity at 30 µM with CLL cells (read-out: Inhibition (%) of viability, resistant CLL cells, patient 17, EA 30 μM, CCcompound104 5 μg/ml, CCcompound26 1 μM) is 31.8%; with CLL cells (read-out: Inhibition (%) of viability, resistant CLL cells, patient 18, EA 30 μM, CCcompound104 5 μg/ml, CCcompound26 1 μM), 38.3%; in the data set with CLL cells (read-out: decrease of viability of resistant CLL cells, over patients 17 and 18, EA 30 μM, CCcompound104 5 μg/ml, CCcompound26 1 μM), 31 to 38%; with MCF-7 cells, 32%. Moreover, the cytotoxicity at 60 µM in the data set on MCF-7/ADR cells (Homo sapiens, NCI/ADR-RES, read-out: Inhibition (%) of viability) was approximately 24%. Moreover, the cytotoxicity at 15 µM in data set [1] (non-Hodgkin patient 1, EA 15 μM) amounted to 36.8%; in data set [1] (non-Hodgkin patient 2, EA 15 μM) it was 42.4%; in data set [1] (non-Hodgkin patient 3, EA 15 μM), 48.2%; in data set [1] (non-Hodgkin patient 4, EA 15 μM), 53.1%.

Take `C[Si](C)(C)COc1ccc(C(=O)OCCN2CCN(CCCOC(=O)C3c4ccccc4Oc4ccccc43)CC2)cc1.Cl.Cl` [CCcompound104]: the “effect on the cellular content of Rhodamine 123” value with parent L5178 cells is “no detectable effects”. Also, the solubility in water result in the data set “Solubility in water” is reported as “water-soluble”.

As for `CC[N+](C)(CC)CCOCc1ccc2sc3ccccc3c(=O)c2c1` [CCcompound3], the cytotoxicity at 5 µM worked out at 7.8% in the data set with CLL cells (read-out: Inhibition (%) of viability, CLL patient 8, CCcompound104 5 μg/ml); 11.1% in the data set with CLL cells (read-out: Inhibition (%) of viability, CLL patient 9, CCcompound104 5 μg/ml); 32% with CLL cells (read-out: Inhibition (%) of viability, CLL patient 10, CCcompound104 5 μg/ml); 33.3% with CLL cells (read-out: Inhibition (%) of viability, CLL patient 11, CCcompound104 5 μg/ml); 26% with CLL cells (read-out: Inhibition (%) of viability, CLL patient 12, CCcompound104 5 μg/ml); 12.5% in the data set on CLL cells (read-out: Inhibition (%) of viability, CLL patient 13, CCcompound104 5 μg/ml). Also, the cytotoxicity at 5 µM in the data set on CLL cells (read-out: Inhibition (%) of viability, CLL patient 14, CCcompound104 5 μg/ml) was 36.3%; in the data set on CLL cells (read-out: Inhibition (%) of viability, CLL patient 15, CCcompound104 5 μg/ml) it was 3.3%; in the data set with CLL cells (read-out: Inhibition (%) of viability, CLL patient 16, CCcompound104 5 μg/ml) it was 50.1%; in the data set with CLL cells (read-out: Inhibition (%) of viability, CLL patient 17, CCcompound104 5 μg/ml), 0%; in the data set with CLL cells (read-out: Inhibition (%) of viability, CLL patient 18, CCcompound104 5 μg/ml) it was 6%; in the data set on CLL cells (read-out: Inhibition (%) of viability, CLL patient 19, CCcompound104 5 μg/ml) it was 9.2%. In addition, the cytotoxicity at 5 µM with CLL cells (read-out: Inhibition (%) of viability, CLL patient 20, CCcompound104 5 μg/ml) was 0%. In the data set with MCF-7/ADR cells, the “Inhibition (%) of viability” value came out at 20.0%. Moreover, the cytotoxicity at 72 h, 1 μM in “in vitro” (Inhibition (%) of viability) turned out to be 0%. Moreover, the cytotoxicity at 72 h, 50 μM in “in vitro” (decrease of viability of healthy lymphocytes) is 6%.

The values above are taken from patent publication US20080207738A1, “DRUG COMBINATIONS TO TREAT DRUG RESISTANT TUMORS” (priority 2007, published 2008).
